US8865197B2, “Food formulation for aquatic animals with integrated targeted delivery of bioactive agents” (Israel Oceanographic and Limnological Research Ltd., priority 2005, dated 2014)

Test system: rainbow trout
Test: Cannulation experiment: plasma cortisol response to oral ACTH with gut modulators
Format: in vivo, rainbow trout (Oncorhynchus mykiss)
Settings: for Cumulative plasma cortisol: over a 360 min period, oral ACTH 0.5 mg kg^−1
Procedure: Rainbow trout of a weight range of 750-1700 g (Spring Valley Trout Farms, Langley, BC) were immunized against firunculosis and vibriosis by injecting them with 0.2 ml fish^−1 of a 1:1 ratio of VIBRIOGEN and FUROGEN (Microtek, BC, Canada), and stocked in 4,000 liter tanks. The tanks were supplied with well water at a temperature of 10±0.5° C. at about 10 exchanges per day. After 10 days fish were transferred gradually over a period of another 10 days to full strength seawater (25-29 ppt). The temperature of the seawater ranged between 7-9° C. according to season. Only following their acclimation to seawater, after another 10 days, were fish used. […] Fish were fed daily about 1% BW of a 42% protein and 33% crude fat diet (Moore-Clark Co., Canada).
Fish were kept individually in 200 1 fiberglass tub aquaria. Fish in the tanks were confined to one half of the tank with a partition. […] In addition, fish were encouraged to swim against a current, which was generated by a pipe which directed the water inflow to the surface of the tank. The experimental fish were not fed within a given experiment, which normally lasted for 5 days, and were force fed once a week with a 0.5% body weight of a Moore Clark “Royal extrude salmon feed” (42% C.P., 33% C.F.), which was mixed with water at a 1:1 ratio to give a paste which could be intubated into the fish.
Fish were anesthetized in two stages. They were first sedated in metomidate hydrochloride (Marinil, Wildlife laboratories Inc. CO, USA) in a 250 ppb solution in the 4000 liter holding tanks with the water supply turned off. Fish were netted out of the 4,000 liter tanks into 15 liter of well aerated 100 ppm MS222 (3 amino benzoic acid ethyl ester; SIGMA) solution in SW for a deeper anesthesia. Fish were sedated until active gill ventilation ceased at which point they were taken out of the water, weighed and cannulated.
Samples were taken of blood to determine plasma cortisol or hCG. Blood sampling was done in two stages: First a volume equal to the dead volume of the cannula (˜250 μl) was withdrawn and discarded, this was followed by sampling 250-500 μl blood, depending on the RIA assay (cortisol or hCG), into a 1 ml EDTA-Aprotinin coated syringe. The blood samples were kept in 500 μl Eppendorf tubes on ice for up to two hours within which time the tubes were centrifuged at 13,000 rpm for 5 min. The supernatant plasma was removed by disposable Pasteur pipettes into Eppendorff tubes and stored at −40° C. until the RIA. When blood samples were taken for hCG analysis they were centrifuged for 5 minutes at 3750 rpm at 5° C.
To measure plasma cortisol, 20 μl of plasma was applied to a kit by INCSTAR (Minnesota, USA). No significant crossreactivity of this kit was found with dexamethasone (9α-Fluoro-16α-Methyl Predindone, SIGMA), while it crossreacted with cortisol (hydrocortisone; SIGMA), which was used in the clearance rate experiments. Porcine ACTH (SIGMA) which was used for the intubation study elicited a cortisol response in fish but could not be detected reliably by the cortisol RIA. Plasma hCG was also determined based on a RIA (INCSTAR) kit and of the orally applied hCG based on Van der Kraak et al. (1984). ACTH stimulates cortisol production in the interrenal cells of the kidney.

Q: Which “cumulative response of cortisol to plasma ACTH” value (DOC molar concentration 0 in the intubation medium (PBS)) does the source give for ACTH here?
A: 1454±597 ng cortisol kg^−1

Q: What about the Cumulative plasma cortisol (DOM 0 mg kg^−1) of the same molecule?
A: 1086 ng/kg

Q: How did the “gut penetrability to ACTH as reflected by plasma cortisol” value (change relative to no modulator) turn out when O=c1[nH]c2ccccc2n1CCCN1CCC(n2c(=O)[nH]c3cc(Cl)ccc32)CC1 [DOM, domperidone] was run?
A: quadrupled

Q: What about the Cumulative plasma cortisol (DOM 4.5 mg kg^−1) of the same molecule?
A: 4329 ng/kg

Q: How did the “cumulative response of cortisol to plasma ACTH” value (DOC molar concentration 0.0167 in the intubation medium (PBS)) turn out when C[C@H](CCC(=O)O)[C@H]1CC[C@H]2[C@@H]3CC[C@@H]4C[C@H](O)CC[C@]4(C)[C@H]3C[C@H](O)[C@]12C [DOC, deoxycholic acid] was run?
A: 7042±3243 ng cortisol kg^−1
